From PMC2935290 (Journal of immunology (Baltimore, Md. : 1950), 2010)
Substitutions are numbered along the chain they refer to. Where a SMILES comes first, the peptide text is derived from it. Where no end group is shown, it is not given here.

Legend:
HLA-DPB1*0402 = molecular target: T1, HLA-DPB1*0402 (Homo sapiens, UniProt P04440+P20036, A65V/A84D/A85E/L207M); assay: biochemical; assay type: binding
T1 sequence (P04440 30-258 A65V/A84D/A85E): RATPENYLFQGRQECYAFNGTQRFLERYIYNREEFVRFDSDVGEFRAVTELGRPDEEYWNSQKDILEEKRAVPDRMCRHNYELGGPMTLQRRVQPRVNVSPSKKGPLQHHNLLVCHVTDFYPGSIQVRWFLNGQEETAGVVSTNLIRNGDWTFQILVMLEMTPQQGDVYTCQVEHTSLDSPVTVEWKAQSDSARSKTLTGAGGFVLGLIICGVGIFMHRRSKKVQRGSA
T1 sequence (P20036 29-260): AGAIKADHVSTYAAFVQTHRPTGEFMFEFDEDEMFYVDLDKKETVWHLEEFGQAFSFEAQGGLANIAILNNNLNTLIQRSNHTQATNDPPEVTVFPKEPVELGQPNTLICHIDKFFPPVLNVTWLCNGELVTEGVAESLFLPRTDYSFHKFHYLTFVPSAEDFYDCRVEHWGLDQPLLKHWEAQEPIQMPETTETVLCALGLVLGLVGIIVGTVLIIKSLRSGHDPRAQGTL

HLA-DPB1*0201 = molecular target: T2, HLA-DPB1*0201 (Homo sapiens, UniProt P04440+P20036, A65V/A84D/A85E/K98E); assay: biochemical; assay type: binding
T2 sequence (P04440 30-258 A65V/A84D/A85E/K98E): T1 sequence (P04440 30-258 A65V/A84D/A85E) with K69E
T2 sequence (P20036 29-260): T1 sequence (P20036 29-260)

Row | Molecule | IC50 (HLA-DPB1*0402) [µM] | IC50 (HLA-DPB1*0201) [µM]
1 | FFLLTRILTIPQSLD | 0.0012 | 0.0003
2 | DKKETVWHLE | 3.74 | 0.093
3 | SDVGEFRAVTELG | 4.05 | 0.619
4 | CDGERPTLAFLQDVM | 15.2 | 32.8
5 | CC(C)C[C@H](NC(=O)[C@@H](NC(=O)[C@H](Cc1c[nH]cn1)NC(=O)[C@H](CO)NC(=O)[C@H](Cc1ccccc1)NC(=O)[C@H](CO)NC(=O)CNC(=O)CNC(=O)[C@H](CC(C)C)NC(=O)[C@H](Cc1ccc(O)cc1)NC(=O)[C@H](CCCNC(=N)N)NC(=O)[C@H](Cc1ccc(O)cc1)NC(=O)[C@H](CC(C)C)NC(=O)[C@@H]1CCCN1)C(C)C)C(=O)O | 0.149 | 0.013
6 | DVKFPGGGQIVGGVYLLPRR | 0.033 | –
7 | CC[C@H](C)[C@H](NC(=O)[C@H](C)NC(=O)[C@H](CS)NC(=O)[C@H](C)NC(=O)[C@H](CC(C)C)NC(=O)[C@@H](NC(=O)CNC(=O)[C@H](CC(=O)O)NC(=O)[C@H](CC(=O)O)NC(=O)CNC(=O)[C@@H](N)CCSC)C(C)C)C(=O)N[C@@H](C)C(=O)N[C@H](C(=O)N[C@@H](Cc1c[nH]cn1)C(=O)N[C@@H](C)C(=O)N[C@@H](CCCCN)C(=O)N[C@H](C(=O)N[C@@H](CCCNC(=N)N)C(=O)N[C@@H](CC(=O)O)C(=O)O)[C@@H](C)CC)[C@@H](C)O | – | 8.79
8 | NNKYAASSYLSLTPE | 0.042 | 0.0024
9 | RELWWVFYAAD | – | 0.291
10 | CSCC[C@H](NC(=O)[C@H](CCSC)NC(=O)[C@@H](N)CCCNC(=N)N)C(=O)N[C@@H](CCC(=O)O)C(=O)N[C@@H](Cc1ccc(O)cc1)C(=O)NCC(=O)N[C@H](C(=O)N[C@H](C(=O)N[C@@H](CCSC)C(=O)N[C@H](C(=O)N[C@@H](CO)C(=O)N[C@@H](Cc1ccc(O)cc1)C(=O)N[C@@H](CCC(N)=O)C(=O)N1CCC[C@H]1C(=O)N[C@@H](CC(C)C)C(=O)O)C(C)C)[C@@H](C)O)[C@@H](C)O | 1.31 | 0.725
11 | CC(C)C[C@H](NC(=O)[C@@H](NC(=O)[C@H](CC(N)=O)NC(=O)[C@H](Cc1ccccc1)NC(=O)[C@H](CC(C)C)NC(=O)[C@H](CO)NC(=O)[C@H](Cc1c[nH]c2ccccc12)NC(=O)[C@@H](NC(=O)[C@@H](NC(=O)[C@H](Cc1c[nH]cn1)NC(=O)[C@H](CC(=O)O)NC(=O)[C@@H]1CCCN1C(=O)[C@@H](N)C(C)C)C(C)C)C(C)C)[C@@H](C)O)C(=O)O | 0.0084 | 0.0011
12 | CC[C@H](C)[C@H](NC(=O)[C@H](CC(=O)O)NC(=O)[C@H](CC(=O)O)NC(=O)[C@H](Cc1ccccc1)NC(=O)[C@H](C)NC(=O)[C@H](CCCCN)NC(=O)[C@H](CCC(N)=O)NC(=O)[C@@H](NC(=O)[C@H](CCCCN)NC(=O)[C@@H](N)CCC(=O)O)[C@@H](C)CC)C(=O)N[C@@H](C)C(=O)N[C@@H](CCCCN)C(=O)N[C@@H](Cc1ccc(O)cc1)C(=O)N[C@@H](Cc1ccccc1)C(=O)N[C@@H](CO)C(=O)N[C@@H](CCCCN)C(=O)O | 0.506 | 0.075
13 | DTLRSYYADWYQQKPG | 1.55 | 0.188
14 | INEPTAAAIAYGLDR | 11.6 | 4.15
15 | CC[C@H](C)[C@H](NC(=O)[C@@H](N)Cc1c[nH]c2ccccc12)C(=O)N[C@H](C(=O)N[C@@H](CCC(N)=O)C(=O)N[C@@H](CS)C(=O)N[C@@H](Cc1ccccc1)C(=O)N[C@@H](CC(C)C)C(=O)N1CCC[C@H]1C(=O)N[C@H](C(=O)N[C@@H](Cc1ccccc1)C(=O)N[C@@H](CC(C)C)C(=O)N[C@@H](C)C(=O)N[C@@H](CCC(N)=O)C(=O)N1CCC[C@H]1C(=O)N1CCC[C@H]1C(=O)N[C@@H](CO)C(=O)NCC(=O)N[C@@H](CCC(N)=O)C(=O)N[C@@H](CCCNC(=N)N)C(=O)N[C@@H](CCCNC(=N)N)C(=O)O)C(C)C)[C@@H](C)O | 0.025 | –
16 | CC[C@H](C)[C@H](NC(=O)[C@H](Cc1c[nH]c2ccccc12)NC(=O)[C@H](CCSC)NC(=O)[C@H](CC(C)C)NC(=O)[C@H](CC(C)C)NC(=O)[C@@H](N)CO)C(=O)N[C@H](C(=O)N[C@@H](CCC(N)=O)C(=O)N[C@@H](CS)C(=O)N[C@@H](Cc1ccccc1)C(=O)N[C@@H](CC(C)C)C(=O)N1CCC[C@H]1C(=O)N[C@H](C(=O)O)C(C)C)[C@@H](C)O | 0.0061 | 0.0013
17 | FDRSTKVIDFHYPNE | 30.4 | –
18 | RSQPGLCNMYKDSHHPARTA | 7.78 | 4.59
19 | CC[C@H](C)[C@H](NC(=O)[C@H](CCC(N)=O)NC(=O)[C@H](CS)NC(=O)[C@H](Cc1ccc(O)cc1)NC(=O)[C@H](CC(N)=O)NC(=O)[C@H](CO)NC(=O)[C@@H](NC(=O)CNC(=O)[C@H](Cc1ccccc1)NC(=O)[C@H](CCCNC(=N)N)NC(=O)[C@H](CCC(N)=O)NC(=O)[C@H](C)NC(=O)[C@@H](N)CC(N)=O)[C@@H](C)CC)C(=O)O | 0.365 | 0.0078
20 | EEVDMTPADALDDFD | 26 | 5.8
21 | CC[C@H](C)[C@H](NC(=O)[C@H](CO)NC(=O)[C@H](Cc1ccc(O)cc1)NC(=O)[C@H](C)NC(=O)[C@H](CS)NC(=O)[C@H](CC(C)C)NC(=O)[C@H](CC(C)C)NC(=O)[C@H](CS)NC(=O)[C@@H](N)CC(=O)O)C(=O)N[C@@H](CCC(=O)O)C(=O)N[C@@H](Cc1ccccc1)C(=O)NCC(=O)N[C@H](C(=O)N[C@@H](CC(N)=O)C(=O)N[C@H](C(=O)N[C@@H](CO)C(=O)N[C@@H](CCCCN)C(=O)N[C@@H](CCC(=O)O)C(=O)N[C@@H](Cc1c[nH]cn1)C(=O)N[C@@H](CC(=O)O)C(=O)O)[C@@H](C)CC)[C@@H](C)O (H-DCLLCAYSIEFGTNISKEHD-OH) | 0.232 | 0.343
22 | CC[C@H](C)[C@H](NC(=O)[C@@H](N)CCCCN)C(=O)N[C@@H](Cc1ccccc1)C(=O)NCC(=O)N[C@@H](CO)C(=O)N[C@@H](CC(C)C)C(=O)N[C@@H](C)C(=O)N[C@@H](Cc1ccccc1)C(=O)N[C@@H](CC(C)C)C(=O)N1CCC[C@H]1C(=O)N[C@@H](CCC(=O)O)C(=O)N[C@@H](CO)C(=O)N[C@@H](Cc1ccccc1)C(=O)N[C@@H](CC(=O)O)C(=O)NCC(=O)N[C@@H](CC(=O)O)C(=O)N1CCC[C@H]1C(=O)N[C@@H](C)C(=O)O | 0.143 | 0.009
23 | CC(C)C[C@H](NC(=O)[C@H](CO)NC(=O)[C@H](CCC(N)=O)NC(=O)[C@@H](N)CC(C)C)C(=O)N[C@H](C(=O)N[C@@H](CO)C(=O)N[C@@H](CCC(N)=O)C(=O)N[C@@H](Cc1ccc(O)cc1)C(=O)N[C@@H](Cc1ccccc1)C(=O)N[C@@H](CCC(N)=O)C(=O)N[C@H](C(=O)N[C@H](C(=O)N[C@@H](C)C(=O)N[C@@H](CC(=O)O)C(=O)N[C@@H](Cc1ccc(O)cc1)C(=O)O)C(C)C)[C@@H](C)O)C(C)C | – | 0.0027
24 | CC[C@H](C)[C@H](NC(=O)[C@H](CS)NC(=O)[C@@H]1CCCN1C(=O)[C@H](CCC(=O)O)NC(=O)[C@H](CO)NC(=O)CNC(=O)[C@@H](N)Cc1c[nH]cn1)C(=O)N[C@H](C(=O)N[C@@H](Cc1c[nH]cn1)C(=O)N[C@@H](CCCNC(=N)N)C(=O)NCC(=O)N[C@@H](CCCCN)C(=O)N1CCC[C@H]1C(=O)N[C@@H](Cc1ccccc1)C(=O)N[C@@H](CCC(N)=O)C(=O)N[C@@H](CC(C)C)C(=O)N[C@@H](CCC(=O)O)C(=O)N[C@@H](C)C(=O)N[C@H](C(=O)O)C(C)C)[C@@H](C)CC | 1.41 | 0.82
25 | CC[C@H](C)[C@H](NC(=O)[C@H](CO)NC(=O)[C@H](CCC(=O)O)NC(=O)[C@H](C)NC(=O)[C@H](CCC(=O)O)NC(=O)[C@H](CCSC)NC(=O)[C@H](CCC(N)=O)NC(=O)[C@H](CCCCN)NC(=O)[C@@H](NC(=O)[C@H](CC(=O)O)NC(=O)[C@H](CCC(=O)O)NC(=O)[C@H](CCSC)NC(=O)[C@H](C)NC(=O)[C@H](CCC(N)=O)NC(=O)[C@H](CC(=O)O)NC(=O)[C@H](CCC(=O)O)NC(=O)[C@@H](N)[C@@H](C)O)[C@@H](C)CC)C(=O)N[C@@H](CO)C(=O)O | 2.47 | 4.77
26 | CC[C@H](C)[C@H](NC(=O)[C@H](C)NC(=O)[C@H](CC(=O)O)NC(=O)[C@H](CCCCN)NC(=O)[C@H](CC(C)C)NC(=O)[C@@H](NC(=O)[C@H](CCC(=O)O)NC(=O)[C@H](C)NC(=O)[C@H](Cc1ccccc1)NC(=O)[C@@H](NC(=O)[C@H](Cc1c[nH]cn1)NC(=O)[C@@H](NC(=O)[C@H](CCC(N)=O)NC(=O)[C@H](CC(C)C)NC(=O)[C@H](Cc1ccccc1)NC(=O)[C@@H](N)C(C)C)[C@@H](C)O)[C@@H](C)CC)C(C)C)C(=O)N[C@@H](CCCCN)C(=O)N[C@@H](CC(=O)O)C(=O)N[C@@H](CC(C)C)C(=O)O | 0.0056 | 0.032
27 | CC[C@H](C)[C@H](NC(=O)[C@H](Cc1ccc(O)cc1)NC(=O)[C@H](CCC(=O)O)NC(=O)[C@H](Cc1ccccc1)NC(=O)[C@H](C)NC(=O)[C@H](CCC(N)=O)NC(=O)[C@H](CO)NC(=O)[C@@H]1CCCN1C(=O)[C@@H](N)CC(C)C)C(=O)N[C@@H](CC(C)C)C(=O)N[C@@H](Cc1ccc(O)cc1)C(=O)N[C@@H](CC(N)=O)C(=O)N[C@@H](CCCCN)C(=O)NCC(=O)O | 0.0096 | 0.001
28 | LTGYSLFQKEKMVLN | – | 0.18
29 | TPTEKDEYCARVNH | 14 | –
